According to ChEMBL document CHEMBL4145537, “Synthesis and biological evaluation of novel quinazoline-4-piperidinesulfamide derivatives as inhibitors of NPP1” (Eur J Med Chem, 2018):

Assays:
[1] = molecular target: T1, Ectonucleotide pyrophosphatase/phosphodiesterase family member 1 (Homo sapiens, UniProt P22413); assay: Inhibition of human GFP-fused NPP1 expressed in COS7 cells using pnp-TMP as substrate after 60 mins; type: cell-based
T1 sequence (P22413 whole entry): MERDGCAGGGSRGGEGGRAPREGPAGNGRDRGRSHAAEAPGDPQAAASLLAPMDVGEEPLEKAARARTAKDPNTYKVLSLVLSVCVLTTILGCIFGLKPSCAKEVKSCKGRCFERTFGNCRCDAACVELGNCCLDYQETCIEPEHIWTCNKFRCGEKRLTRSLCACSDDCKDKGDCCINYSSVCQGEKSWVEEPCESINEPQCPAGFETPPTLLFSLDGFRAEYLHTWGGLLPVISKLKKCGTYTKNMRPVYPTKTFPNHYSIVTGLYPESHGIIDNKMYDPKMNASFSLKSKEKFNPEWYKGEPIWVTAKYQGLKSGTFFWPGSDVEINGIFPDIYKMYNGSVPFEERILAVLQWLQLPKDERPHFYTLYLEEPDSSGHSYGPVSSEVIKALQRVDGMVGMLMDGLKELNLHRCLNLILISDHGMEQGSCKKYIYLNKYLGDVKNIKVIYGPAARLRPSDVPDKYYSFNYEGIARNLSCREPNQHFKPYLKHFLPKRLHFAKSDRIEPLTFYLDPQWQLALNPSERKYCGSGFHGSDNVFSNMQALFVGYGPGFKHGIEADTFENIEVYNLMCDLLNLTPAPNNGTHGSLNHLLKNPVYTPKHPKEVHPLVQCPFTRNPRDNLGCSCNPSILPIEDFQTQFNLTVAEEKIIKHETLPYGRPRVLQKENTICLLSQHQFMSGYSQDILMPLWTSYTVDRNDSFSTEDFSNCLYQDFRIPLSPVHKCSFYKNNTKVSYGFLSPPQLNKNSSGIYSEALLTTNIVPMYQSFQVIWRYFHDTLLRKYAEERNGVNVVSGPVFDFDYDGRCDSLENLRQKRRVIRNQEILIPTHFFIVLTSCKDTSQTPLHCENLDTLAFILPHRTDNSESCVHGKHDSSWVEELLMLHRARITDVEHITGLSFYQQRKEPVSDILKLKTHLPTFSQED

[2] = molecular target: T2, Ectonucleotide pyrophosphatase/phosphodiesterase family member 1 (Homo sapiens) (UniProt P22413); assay: Inhibition of human GFP-fused NPP1 expressed in COS7 cells at 1 uM using pnp-TMP as substrate after 60 mins relative to control; type: cell-based
T2 sequence (whole entry): T1 sequence (P22413 whole entry)

Compound `COc1ccccc1/C=C/c1nc(N2CCC(CCNS(N)(=O)=O)CC2)c2cc(OC)c(OC)cc2n1` has a Ki [1] of 302 nM and an inhibition [2] of 74%.

`COc1cc2nc(/C=C/c3ccccc3F)nc(N3CCC(CCNS(N)(=O)=O)CC3)c2cc1OC` was tested, and the Ki [1] was 211 nM and the inhibition [2] was 78%.

`COc1cccc(/C=C/c2nc(N3CCC(CCNS(N)(=O)=O)CC3)c3cc(OC)c(OC)cc3n2)c1` gave a Ki [1] of 101 nM and an inhibition [2] of 88%.

In the case of `COc1cc2nc(CCc3ccc(F)cc3)nc(N3CCC(CCNS(N)(=O)=O)CC3)c2cc1OC`, the Ki [1] is reported as 366 nM and the inhibition [2] is reported as 69%.

`COc1cc2nc(/C=C/c3ccccn3)nc(N3CCC(CCNS(N)(=O)=O)CC3)c2cc1OC` was tested, and the Ki [1] was 71 nM and the inhibition [2] was 85%.

Work on `COC(=O)c1cccc(/C=C/c2nc(N3CCC(CCNS(N)(=O)=O)CC3)c3cc(OC)c(OC)cc3n2)c1` yielded a Ki [1] of 297 nM and an inhibition [2] of 74%.

In the case of `COc1cc2nc(/C=C/c3ccccc3)nc(N3CCC(CCNS(N)(=O)=O)CC3)c2cc1OC`, the Ki [1] is reported as 1840 nM and the inhibition [2] is reported as 33%.

In the case of `COc1cc2nc(/C=C/c3ccncc3)nc(N3CCC(CCNS(N)(=O)=O)CC3)c2cc1OC`, the Ki [1] is reported as 218 nM and the inhibition [2] is reported as 79%.

With `COc1cc2ncnc(Cl)c2cc1OC/C=C/S(F)(F)(F)(F)F` the Ki [1] was 7970 nM and the inhibition [2] was 15%.

For `CCOc1cc2c(Cl)ncnc2cc1OC`, the Ki [1] was 1310 nM and the inhibition [2] was 48%.

With `COc1ccc(/C=C/c2nc(N3CCC(CCNS(N)(=O)=O)CC3)c3cc(OC)c(OC)cc3n2)cc1` the Ki [1] was 231 nM and the inhibition [2] was 66%.

For `COc1cc2nc(/C=C/c3cccc(F)c3)nc(N3CCC(CCNS(N)(=O)=O)CC3)c2cc1OC`, the Ki [1] was 3580 nM and the inhibition [2] was 14%.

With `COC(=O)c1ccc(/C=C/c2nc(N3CCC(CCNS(N)(=O)=O)CC3)c3cc(OC)c(OC)cc3n2)cc1` the Ki [1] was 1340 nM and the inhibition [2] was 43%.

For `COc1cc2nc(/C=C/c3ccc(F)cc3)nc(N3CCC(CCNS(N)(=O)=O)CC3)c2cc1OC`, the Ki [1] was 465 nM and the inhibition [2] was 70%.

`COc1cc2ncnc(N3CCC(CCNS(C)(=O)=O)CC3)c2cc1OC` showed an inhibition [2] of 12%.

`CCCOc1cc2c(Cl)ncnc2cc1OC` gave a Ki [1] of 3240 nM and an inhibition [2] of 29%.

In the case of `COc1cc2ncnc(N3CCC(CCNC(C)=O)CC3)c2cc1OC`, the inhibition [2] is reported as 9%.

In the case of `COc1cc2ncnc(N3CCC(CC#N)CC3)c2cc1OC`, the inhibition [2] is reported as less than 1%.

With `CCOC(=O)C1CCN(c2ncnc3cc(OC)c(OC)cc23)CC1` the inhibition [2] was 12%.

Compound `COc1cc2ncnc(N3CCC(CO)CC3)c2cc1OC` has an inhibition [2] of 11%.

Compound `COc1cc2ncnc(N3CCC(CCN)CC3)c2cc1OC` has a Ki [1] of 699 nM and an inhibition [2] of 45%.

For `COc1ccc2ncnc(N3CCC(CCNS(N)(=O)=O)CC3)c2c1`, the Ki [1] was 242 nM and the inhibition [2] was 71%.

`COc1cc2nc(/C=C/c3cccnc3)nc(N3CCC(CCNS(N)(=O)=O)CC3)c2cc1OC` was tested, and the Ki [1] was 58 nM and the inhibition [2] was 86%.

Work on `CCCCOc1cc2c(Cl)ncnc2cc1OC` yielded an inhibition [2] of less than 1%.

`COc1cc2ncnc(N3CCC(CCNS(N)(=O)=O)CC3)c2cc1OC` showed an inhibition [2] of 87%.

Work on `COc1cc2nc(CC3OC(=O)c4ccccc43)nc(N3CCC(CCNS(N)(=O)=O)CC3)c2cc1OC` (stereo not given) yielded a Ki [1] of 90 nM and an inhibition [2] of 79%.
